The source of these data is patent US20100324285A1, “ANTIINFLAMMATORY AGENT COMPRISING 2-AMINOPHENOL OR DERIVATIVE THEREOF AS ACTIVE INGREDIENT” (priority 2006, published 2010).

Data set [1] deals with T1, COX-1 (Ovis aries, UniProt P05979).
T1 construct: purchased Cayman Chemical Company
T1 sequence (P05979 25-600): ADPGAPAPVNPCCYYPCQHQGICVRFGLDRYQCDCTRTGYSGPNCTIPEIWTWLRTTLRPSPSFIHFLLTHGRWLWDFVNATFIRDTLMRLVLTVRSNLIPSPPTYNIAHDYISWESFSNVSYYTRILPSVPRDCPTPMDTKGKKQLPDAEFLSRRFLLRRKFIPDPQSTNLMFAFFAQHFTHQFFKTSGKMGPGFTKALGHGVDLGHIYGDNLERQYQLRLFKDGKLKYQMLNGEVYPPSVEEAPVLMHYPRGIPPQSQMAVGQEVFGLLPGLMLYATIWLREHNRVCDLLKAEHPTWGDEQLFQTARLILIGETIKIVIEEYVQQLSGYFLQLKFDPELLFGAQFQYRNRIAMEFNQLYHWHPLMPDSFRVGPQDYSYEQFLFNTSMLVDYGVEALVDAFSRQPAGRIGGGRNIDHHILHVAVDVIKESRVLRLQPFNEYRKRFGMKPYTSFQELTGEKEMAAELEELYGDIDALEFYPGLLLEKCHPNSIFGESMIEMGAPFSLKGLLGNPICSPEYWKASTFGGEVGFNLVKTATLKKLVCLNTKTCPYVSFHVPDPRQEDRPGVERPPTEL
Briefly: COX Inhibitor Screening Assay Kit, COX-1. In kind it is biochemical. An excerpt: (§1) Fifty percent inhibitory concentration (IC50) means the concentration of test sample necessary for inhibiting PGE2 synthesis by 50% compared to non-inhibitory control sample. It can be also determined by measuring the amount of PGE2 produced by adding test samples to cells having cyclooxygenase activity. COX-1/COX-2 ratio means the ratio of […], and the higher the ratio is, the more specific to COX-2 the agent is.
(§2) To verify the results of Experiment 2, it was investigated that whether the activity of COXs, essential enzymes for PGE2 synthesis system, can be inhibited. […] An experimental system without the test samples was set as control. The residual activity of COX-1 or COX-2 was determined as relative activity versus control.

In data set [2] the target is T2, COX-2 (Homo sapiens, UniProt P35354).
T2 sequence (P35354 18-604): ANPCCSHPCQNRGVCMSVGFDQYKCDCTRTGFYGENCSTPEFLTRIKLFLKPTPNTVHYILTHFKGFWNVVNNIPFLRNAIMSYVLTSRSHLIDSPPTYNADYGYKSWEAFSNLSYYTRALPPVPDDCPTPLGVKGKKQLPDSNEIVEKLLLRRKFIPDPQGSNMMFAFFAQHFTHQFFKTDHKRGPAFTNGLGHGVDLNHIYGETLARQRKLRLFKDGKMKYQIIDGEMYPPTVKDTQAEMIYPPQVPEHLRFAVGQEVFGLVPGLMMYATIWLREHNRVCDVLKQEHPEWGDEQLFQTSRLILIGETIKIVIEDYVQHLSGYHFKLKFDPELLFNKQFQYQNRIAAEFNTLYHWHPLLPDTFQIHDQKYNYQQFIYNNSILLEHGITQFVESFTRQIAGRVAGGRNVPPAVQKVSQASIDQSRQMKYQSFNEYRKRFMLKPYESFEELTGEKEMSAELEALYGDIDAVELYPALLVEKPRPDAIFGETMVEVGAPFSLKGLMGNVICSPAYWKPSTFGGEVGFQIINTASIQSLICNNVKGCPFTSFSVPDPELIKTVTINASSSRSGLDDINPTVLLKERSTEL
Briefly: COX Inhibitor Screening Assay Kit, COX-2. In kind it is biochemical.
From the text: as §1, §2

Data set [3] concerns Mouse melanoma cell line B16. Briefly: Melanin synthesis in B16 cells. In kind it is cell-based. The following applies: for Amount of melanin (%): 5 days, per mg protein versus control. On the procedure:
(§3) As control, a system with no test sample was provided. […] The amount of protein was measured by conventional Bradfordmethod and the amount of melanin per 1 mg of protein was calculated. The amount of melanin (%) was calculated according to Formula 4, and the living cell rate (%) was calculated according to Formula 5.
As control, a system with no test sample was provided. […] The amount of protein was measured by conventional Bradford method and the amount of melanin per 1 mg of protein was calculated. The amount of melanin (%) was calculated according to Formula 4.

Data set [4] concerns Mouse melanoma cell line B16. Put plainly: Living cell rate of B16 cells. The conditions noted are these: 5 days, versus control. On the procedure:
as §3

For data set [5], the system named is RAW264.7 cells. Briefly: NO production by macrophage RAW264.7, Griess method. In kind it is cell-based, mouse. The conditions noted are these: LPS + IFN-γ, 2 days, relative level versus control. The text has this:
As macrophage cells, RAW264.7 cell strain from mouse or macrophage cells obtained from laboratory animals such as mouse can be used. The amount of produced NO can be measured by conventional Griess method. […] RAW264.7 cells, a murine macrophage cell strain, were suspended in PRMI1640 medium supplied with 10% (v/v) fetal calf serum (hereinafter abbreviated as “FCS”) to give a cell suspension with a cell concentration of 1×10^6 cells/ml. […] The experimental system without the test samples described above was set as control. […] NO production, PGE2 production and macrophage growth are indicated as relative levels versus controls.

Data set [6] deals with RAW264.7 cells. Briefly: PGE2 production by macrophage RAW264.7, PGE2-EIA kit. The following applies: LPS + IFN-γ, 2 days, relative level versus control. In kind it is cell-based, mouse. An excerpt:
(§4) RAW264.7 cells, a murine macrophage cell strain, were suspended in PRMI1640 medium supplied with 10% (v/v) fetal calf serum (hereinafter abbreviated as “FCS”) to give a cell suspension with a cell concentration of 1×10^6 cells/ml. […] The experimental system without the test samples described above was set as control. […] NO production, PGE2 production and macrophage growth are indicated as relative levels versus controls.

Data set [7] concerns RAW264.7 cells. Put plainly: Macrophage growth, living cell count. In kind it is cell-based, mouse. The conditions noted are these: 2 days, relative level versus control.
From the text: as §4

Data set [8] addresses T2, COX-2. The conditions noted are these: nonsteroidal COX inhibitors, comparison values, source not given; cited from earlier work.
Setting [9] is: read-out: residual activity of COX-1.
Where [10] appears, read: read-out: residual activity of COX-2.

Where two headings read alike, the source gives them in different places.

For the molecule `Nc1ccccc1O` [2-Aminophenol], the IC50 came out at 28 µM in data set [1] and 27.7 µM in data set [2]. Besides, the remaining activity at 8 µM in data set [1] (setting [9]) was 66%; in data set [2] (setting [10]) it was 72%. In addition, the remaining activity at 16 µM in data set [1] (setting [9]) came out at 73%; in data set [2] (setting [10]), 60%. Also, the remaining activity at 32 µM turned out to be 42% in data set [1] (setting [9]) and 47% in data set [2] (setting [10]). For the same molecule, the COX-1/COX-2 ratio result in data set [2] (ratio of IC50 values of Table 2) is reported as “about 1”. For the same molecule, the “Amount of melanin (%)” value in data set [3] (1 μM) was determined as 62%; in data set [3] (2 μM) it was 55%; in data set [3] (4 μM), 50%. In data set [3] (in the concentration at which the cell-growth was not inhibited), the “inhibiting effect on melanin production higher than that of kojic acid” value is 1.000 fold. In addition, the “Living cell rate (%)” value in data set [4] (1 μM) came to 95%; in data set [4] (2 μM), 79%; in data set [4] (4 μM), 52%.
With `CC(=O)Oc1ccccc1C(=O)O` [AS, aspirin], the “NO production (%)” value in data set [5] (0.16 μM) is recorded as 101%; in data set [5] (0.31 μM), 102%; in data set [5] (0.63 μM) it was 102%; in data set [5] (1.3 μM), 93%; in data set [5] (2.5 μM), 95%; in data set [5] (5.0 μM), 90%. The “NO production (%)” value in data set [5] (10 μM) is given as 86%. The “PGE2 production (%)” value in data set [6] (0.16 μM) worked out at 98%; in data set [6] (0.31 μM), 99%; in data set [6] (0.63 μM) it was 79%; in data set [6] (1.3 μM) it was 47%; in data set [6] (2.5 μM), 33%; in data set [6] (5.0 μM), 8%. The “PGE2 production (%)” value in data set [6] (10 μM) was found to be 3%. In addition, the “Macrophage growth (%)” value in data set [7] (0.16 μM) came to 103%; in data set [7] (0.31 μM), 100%; in data set [7] (0.63 μM) it was 95%; in data set [7] (1.3 μM) it was 85%; in data set [7] (2.5 μM), 86%; in data set [7] (5.0 μM), 89%. In addition, the “Macrophage growth (%)” value in data set [7] (10 μM) came out at 89%. Further, in data set [8], the COX-1/COX-2 ratio is given as 0.24.
